Laboratory results: PubChem BioAssay (NCI)
Where “and” joins values, the source holds several entries; their conditions need not be identical. Equal entries are not always repeated.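 Growth conditions: 96-well plates. Treatment: test compound, 48 hours, 5 concentrations. Analysis: linear interpolation between bracketing concentrations; unreached endpoints set to highest concentration. Here, GI50 denotes the concentration required for 50% inhibition of growth. The concentration for full growth arrest is given as TGI.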

What was measured:
Test in all cases: DTP human tumour cell line panel, 48 h
ACHN renal = tested on: ACHN renal
CCRF-CEM leukemia = tested on: CCRF-CEM leukemia
HCT-116 colon = tested on: HCT-116 colon
NCI-H23 lung = tested on: NCI-H23 lung
NCI-H460 lung = tested on: NCI-H460 lung
NCI-H522 lung = tested on: NCI-H522 lung
OVCAR-5 ovarian = tested on: OVCAR-5 ovarian
OVCAR-8 ovarian = tested on: OVCAR-8 ovarian
SF-268 CNS = tested on: SF-268 CNS
SF-295 CNS = tested on: SF-295 CNS
SN12C renal = tested on: SN12C renal
SNB-75 CNS = tested on: SNB-75 CNS
UACC-62 melanoma = tested on: UACC-62 melanoma
UO-31 renal = tested on: UO-31 renal
MCF7 breast = tested on: MCF7 breast

| Compound | TGI (ACHN renal) [µM] | TGI (CCRF-CEM leukemia) [µM] | TGI (HCT-116 colon) [µM] | TGI (NCI-H23 lung) [µM] | TGI (NCI-H460 lung) [µM] | TGI (NCI-H522 lung) [µM] | TGI (OVCAR-5 ovarian) [µM] | TGI (OVCAR-8 ovarian) [µM] | TGI (SF-268 CNS) [µM] | TGI (SF-295 CNS) | TGI (SN12C renal) [µM] | TGI (SNB-75 CNS) [µM] | TGI (UACC-62 melanoma) [µM] | TGI (UO-31 renal) [µM] | TGI (MCF7 breast) [µM] | GI50 (NCI-H23 lung) | GI50 (NCI-H460 lung) | GI50 (OVCAR-8 ovarian) | GI50 (UO-31 renal) |
| --- | --- | --- | --- | --- | --- | --- | --- | --- | --- | --- | --- | --- | --- | --- | --- | --- | --- | --- | --- |
| Cc1ccccc1NC(=O)CSc1nnc(Cc2ccccc2)o1 | > 100 | > 100 | > 100 | > 100 | > 100 | > 100 | > 100 | > 100 | > 100 | > 100 µM | > 100 | > 100 | > 100 | > 100 |  |  |  |  |  |
| COc1ccc(/C=C(\Cl)c2ccc(OC)cc2)cc1 | > 100 | > 100 | > 100 | > 100 | > 100 | > 100 | > 100 | > 100 | > 100 |  | > 100 | > 100 | 99.1 | > 100 |  |  |  |  |  |
| Cn1c(=O)sc2cc(C(=S)N3CCN(c4ccccc4)CC3)ccc21 | > 100 | > 100 | > 100 | > 100 | > 100 |  | > 100 | > 100 | > 100 | 53.9 µM | > 100 | 80.6 | > 100 |  | > 100 |  |  |  |  |
| COC1C(OC(N)=O)C(O)C(Oc2ccc3c(O)c(NC(=O)c4ccc(O)c(CC=C(C)C)c4)c(=O)oc3c2C)OC1(C)C (stereo not given) | > 100 | > 100 | > 100 |  | > 100 |  | > 100 | > 100 | > 100 |  | > 100 | > 100 | > 100 | > 100 | > 100 |  |  |  |  |
| CC(Nc1n[nH]c(=O)c2c1nnn2Cc1ccccc1)c1ccccc1 (stereo not given) | > 100 | > 100 | > 100 | > 100 | > 100 |  | > 100 | > 100 |  | > 100 µM and 61.1 µM | > 100 |  |  | > 100 | > 100 | > 100 µM and 43.8 µM | > 100 µM and 31 µM | > 100 µM and 44.5 µM | > 100 µM and 23.1 µM |
| Cc1ccc(Nc2cn(COCc3ccccc3)c(=O)[nH]c2=O)cc1 | > 100 | > 100 | > 100 | > 100 | > 100 |  | > 100 |  | > 100 | > 100 µM | > 100 |  | > 100 | > 100 | > 100 |  |  |  |  |
| Cc1[nH]c2ccccc2c1C1=CC(=O)N(c2ccccc2)C1=O | > 100 | 73.4 | 22.7 | 60.9 | 39.4 |  | > 100 | 50 | > 100 | > 100 µM | 86 |  | 26.9 | > 100 | 48.1 |  |  |  |  |
| Nc1nc(NCCOCP(=O)(O)O)c(N)c(=O)[nH]1 | > 100 | > 100 | > 100 | > 100 | > 100 |  | > 100 | > 100 | > 100 | > 100 µM | > 100 | > 100 | > 100 | > 100 | > 100 |  |  |  |  |
| CCOC(=O)c1c(NC(=O)c2ccc(Br)cc2)sc2c1CCCC2 | > 100 | > 100 | > 100 | > 100 | 20 |  | > 100 | > 100 | > 100 | > 100 µM | > 100 |  | > 100 | > 100 | > 100 |  |  |  |  |
| CN(C)Cc1[nH]c2ccccc2c1C(=O)c1ccccc1 | > 100 | > 100 | > 100 | > 100 | > 100 | > 100 | > 100 | > 100 | > 100 | > 100 µM |  | 74.9 | > 100 | > 100 |  |  |  |  |  |
| N#Cc1c(N2CCOCC2)ncn(-c2ccc(Cl)cc2)c1=O | > 100 | > 100 | > 100 | > 100 | > 100 |  | > 100 | > 100 |  | > 100 µM | > 100 | > 100 | > 100 | > 100 | > 100 |  |  |  |  |
| CC1(C)N=C(Oc2ccccc2)n2nccc2N1 | > 100 | > 100 | > 100 | > 100 | > 100 | > 100 | > 100 |  | > 100 | > 100 µM | > 100 | > 100 | > 100 | > 100 |  |  |  |  |  |
| O=C1Cc2ccccc2CCc2ccsc21 |  | > 100 | > 100 | > 100 | > 100 | > 100 | > 100 | > 100 | > 100 | > 100 µM | > 100 | > 100 |  | > 100 |  |  |  |  |  |
| NCCCCCNOCCCN | > 100 | > 100 | > 100 | > 100 | > 100 | > 100 | > 100 | > 100 | > 100 | > 100 µM | > 100 | > 100 | > 100 | > 100 |  |  |  |  |  |
| CCOC(=O)c1ccc(Nc2cnc3ccc(C(F)(F)F)cc3n2)cc1 | 28.5 | 36.6 | 28 | 28.5 | 27.2 |  | 74.7 | 26 | 34 | 50.6 µM | 27.2 | 42.8 | 33.5 | 48.6 | 67.1 |  |  |  |  |
| COc1nc(OC)nc(Sc2ccc(Sc3ccc(Sc4nc(OC)nc(OC)n4)cc3)cc2)n1 | > 100 | > 100 | > 100 | > 100 | > 100 | > 100 | > 100 | > 100 | > 100 | > 100 µM | > 100 | > 100 | > 100 | > 100 |  |  |  |  |  |
| CC#Cc1c(C#CC)c(OC)c2c(c1OC)C(=O)c1ccccc1C2=O | 34.8 | > 100 | 72.6 | > 100 | > 100 | 42.5 | > 100 | > 100 | 78.6 | 39.1 µM | > 100 |  | > 100 | > 100 |  |  |  |  |  |
| O=[N+]([O-])c1ccc2[nH]c(O)c(N=NC(=S)Nc3ccccc3)c2c1 | 19.5 | 20 | 18.6 | 25.8 | 14.5 |  | 24.7 | 31.8 |  | 16.6 µM | 25.8 | 21.5 | 29 | 22 | 24.6 |  |  |  |  |
| Cc1ccc(F)c2c(=O)cc(-c3ccccc3)[nH]c12 | > 100 | > 100 | > 100 | > 100 | > 100 | > 100 | > 100 | > 100 | > 100 | > 100 µM | > 100 | > 100 | > 100 | > 100 |  |  |  |  |  |
| O=C1c2ccccc2C(=O)c2c(O)c(NCCNCCO)cc(O)c21 | 8.93 | 13.2 | 11.9 | 16.7 | 12.3 |  | 21.8 | 12.6 | 15.5 | 22.2 µM | 14.9 | 17.9 | 23.8 | 11.7 |  |  |  |  |  |
| Cc1cc(Cl)ccc1NC(=O)C(=O)Cc1occc(=O)c1O | > 100 | > 100 | > 100 | > 100 | > 100 | > 100 | > 100 | > 100 | > 100 | > 100 µM | > 100 | > 100 | > 100 | > 100 |  |  |  |  |  |
| CCCOP(=S)(N1CC1)N1CC1 | > 100 | > 100 | > 100 | > 100 | > 100 | > 100 | > 100 | > 100 | > 100 | > 100 µM | > 100 | > 100 | > 100 | > 100 |  |  |  |  |  |
| Cc1nc2nn(C)cc2c(=O)n1/N=C/c1ccccc1 | > 100 | > 100 | > 100 | > 100 | > 100 | > 100 | > 100 | > 100 | > 100 | > 100 µM | > 100 | > 100 | > 100 | > 100 |  |  |  |  |  |
| c1cc(C[S+]2CCCC2)oc1C[S+]1CCCC1 | > 100 | > 100 | > 100 | > 100 | > 100 | > 100 |  | > 100 | > 100 | > 100 µM | > 100 | > 100 | > 100 | > 100 |  |  |  |  |  |
| COc1ccc(C2C(Cl)C(=O)N2NC(=O)c2ccccc2O)cc1OC (stereo not given) | > 100 | > 100 | > 100 | > 100 | > 100 | > 100 |  | > 100 | > 100 | > 100 µM | > 100 |  | > 100 | > 100 |  |  |  |  |  |
| CC1=C(C)C(=O)C(C2=C(C3=CC(=O)C(C)=C(C)C3=O)C(=O)c3ccccc3C2=O)=CC1=O | 6.71 | 7.22 | 5.31 | 10.2 | 37.7 | 5.49 | 32.2 | 8.07 | 17.5 | 27.9 µM | 4.06 | 19.6 | 4.62 | 4.95 |  |  |  |  |  |
| CC(C)c1cccc(C(C)C)c1NC(=O)C(=O)C1SC(=S)NC1=O (stereo not given) | > 100 | > 100 | > 100 | > 100 | > 100 | > 100 | > 100 | > 100 | > 100 | > 100 µM | > 100 | > 100 | > 100 | > 100 |  |  |  |  |  |
